This is an account of results in US6887876B2, “Benzamidine derivatives” (Ortho-McNeil Pharmaceutical, Inc., priority 2000, dated 2005).

Where two headings read alike, the source gives them in different places.

One assay deals with δ-opioid receptor (Rattus norvegicus, UniProt P33533). Put plainly: Rat brain δ-opioid receptor binding assay ([3H]DPDPE).
The target of a further assay is μ-opioid receptor (Rattus norvegicus, UniProt P33535). Description: Rat brain μ-opioid receptor binding assay ([3H]DAMGO).
Sequence of μ-opioid receptor (P33535 whole entry): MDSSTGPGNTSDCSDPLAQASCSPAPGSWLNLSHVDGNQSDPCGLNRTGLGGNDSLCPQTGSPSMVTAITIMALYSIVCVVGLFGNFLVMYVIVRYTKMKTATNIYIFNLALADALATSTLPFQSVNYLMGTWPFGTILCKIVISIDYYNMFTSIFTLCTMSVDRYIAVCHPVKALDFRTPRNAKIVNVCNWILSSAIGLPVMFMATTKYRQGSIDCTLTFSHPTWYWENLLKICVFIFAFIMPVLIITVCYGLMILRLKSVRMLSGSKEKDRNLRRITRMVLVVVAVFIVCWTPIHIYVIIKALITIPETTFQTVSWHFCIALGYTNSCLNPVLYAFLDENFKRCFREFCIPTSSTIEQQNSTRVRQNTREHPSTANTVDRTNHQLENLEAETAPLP
The mark [1] stands for this setting: rat forebrain preparation, [3H]DPDPE, 25° C., read-out: δ-Opioid Receptor Binding (Ki nM).
[2] abbreviates: rat forebrain preparation, [3H]DAMGO, 25° C., read-out: μ-Opioid Receptor Binding (Ki nM).

Sequence of δ-opioid receptor (P33533 whole entry): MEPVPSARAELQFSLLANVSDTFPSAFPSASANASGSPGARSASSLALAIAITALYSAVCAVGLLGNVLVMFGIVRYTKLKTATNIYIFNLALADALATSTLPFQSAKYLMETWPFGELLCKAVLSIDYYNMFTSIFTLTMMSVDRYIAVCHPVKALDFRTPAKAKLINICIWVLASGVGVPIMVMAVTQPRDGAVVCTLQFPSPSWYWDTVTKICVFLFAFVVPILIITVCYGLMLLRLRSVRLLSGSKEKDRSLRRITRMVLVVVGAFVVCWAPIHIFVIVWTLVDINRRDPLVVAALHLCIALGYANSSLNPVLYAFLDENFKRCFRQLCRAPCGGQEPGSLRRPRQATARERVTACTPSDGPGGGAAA

As usually defined, the Ki is the dissociation constant of the complex between target and ligand, obtained from inhibition or displacement. On to `CCN(CC)C(=O)c1ccc(C(=Nc2ccccc2Cl)N2CCCN(CCc3ccccc3)CC2)cc1` [Compound 57, 4-[[(2-chlorophenyl)imino][hexahydro-4-(2-phenylethyl)-1H-1,4-diazepin-1-yl]methyl]-N,N-diethyl-benzamide], for which the Ki on δ-opioid receptor came to 29.6 nM; at μ-opioid receptor, 618 nM. Consider “4-[(4-ethenyl-1-piperazinyl)(phenylimino)methyl]-benzoic acid methyl ester [Compound 36]”, for which the Ki on δ-opioid receptor (setting [1]) was 954 nM; at μ-opioid receptor (setting [2]), > 10000 nM. In the case of `CCN(CC)C(=O)c1ccc(C(=Nc2ccccc2C(F)(F)F)N2CCN(CCOC)CC2)cc1` [Compound 26, N,N-diethyl-4-[[4-(2-methoxyethyl)-1-piperazinyl][[2-(trifluoromethyl)phenyl]imino]methyl]-benzamide], the Ki at δ-opioid receptor was determined as 22.9 nM; on μ-opioid receptor it was 2960 nM. `COC(=O)c1ccc(C(=Nc2ccccc2Cl)N2CCCN(CCc3ccccc3)CC2)cc1` [Compound 59, 4-[[(2-chlorophenyl)imino][hexahydro-4-(2-phenylethyl)-1H-1,4-diazepin-1-yl]methyl]-benzoic acid methyl ester]: the inhibition constant (Ki) amounted to 101 nM at δ-opioid receptor (setting [1]) and 197 nM at μ-opioid receptor (setting [2]). On to `COC(=O)c1ccc(C(=Nc2ccc(Cl)cc2)N2CCN(Cc3ccccc3)CC2)cc1` [Compound 38, 4-[[(4-chlorophenyl)imino][4-(phenylmethyl)-1-piperazinyl]methyl]-benzoic acid methyl ester], for which the results for the Ki on δ-opioid receptor (setting [1]) and at μ-opioid receptor (setting [2]) were 246 nM and > 10000 nM, respectively. For `CCN(CC)C(=O)c1ccc(C(=Nc2ccccc2Cl)N2CCN(CCc3ccccc3)CC2)cc1` [Compound 25, 4-[[(2-chlorophenyl)imino][4-(2-phenylethyl)-1-piperazinyl]methyl]-N,N-diethyl-benzamide], the Ki at δ-opioid receptor and on μ-opioid receptor was > 10000 nM each time.

For `C=CCN1CCN(C(=Nc2ccccc2Cl)c2cccc(C(=O)OC)c2)CC1` [Compound 54, 3-[[(2-chlorophenyl)imino][4-(2-propenyl)-1-piperazinyl]methyl]-benzoic acid methyl ester], the Ki on δ-opioid receptor (setting [1]) was found to be 2150 nM; at μ-opioid receptor (setting [2]) it was 1610 nM. On to `COC(=O)c1ccc(C(=Nc2ccccc2)N2CCN(CCc3cccs3)CC2)cc1` [Compound 42, 4-[(phenylimino)[4-[2-(2-thienyl)ethyl]-1-piperazinyl]methyl]-benzoic acid methyl ester], for which the inhibition constant Ki on δ-opioid receptor (setting [1]) and at μ-opioid receptor (setting [2]) was > 10000 nM in each case. For `CCN(CC)C(=O)c1ccc(C(=Nc2ccccc2)N2CCN(Cc3ccccc3)CC2)cc1` [Compound 17, N,N-diethyl-4-[(phenylimino)[4-(phenylmethyl)-1-piperazinyl]methyl]-benzamide], the inhibition constant Ki on δ-opioid receptor was 212 nM; on μ-opioid receptor it was > 10000 nM. On to `C=CCN1CCN(C(=Nc2ccccc2Cl)c2cccc(C(=O)N(CC)CC)c2)CC1` [Compound 52, 3-[[(2-chlorophenyl)imino][4-(2-propenyl)-1-piperazinyl]methyl]-N,N-diethyl-benzamide], for which the values for the Ki at δ-opioid receptor and on μ-opioid receptor were 487 nM and 600 nM, respectively. As for `COC(=O)c1ccc(C(=Nc2ccccc2Cl)N2CCN(CCc3cccs3)CC2)cc1` [Compound 43, 4-[[(2-chlorophenyl)imino][4-[2-(2-thienyl)ethyl]-1-piperazinyl]methyl]-benzoic acid methyl ester], the inhibition constant Ki at δ-opioid receptor (setting [1]) and on μ-opioid receptor (setting [2]) was > 10000 nM throughout. As for `CCN(CC)C(=O)c1ccc(C(=Nc2ccccc2C(F)(F)F)N2CCN(Cc3ccccc3)CC2)cc1` [Compound 23, N,N-diethyl-4-[[4-(phenylmethyl)-1-piperazinyl][[2-(trifluoromethyl)phenyl]imino]methyl]-benzamide], the Ki turned out to be 1.22 nM on δ-opioid receptor and 1200 nM on μ-opioid receptor. Take “4-[[(2-chlorophenyl)imino](4-propyl-1-piperazinyl)methyl]-N,N-diethyl-benzamide [Compound 18]”: the Ki was 157 nM at δ-opioid receptor (setting [1]) and > 10000 nM at μ-opioid receptor (setting [2]).

“3-[(phenylimino)[4-(2-propenyl)-1-piperazinyl]methyl]-benzoic acid methyl ester [Compound 55]”: the Ki at δ-opioid receptor (setting [1]) was 1170 nM; at μ-opioid receptor (setting [2]), > 10000 nM.

Turning to `COC(=O)c1ccc(C(=Nc2ccccc2Cl)N2CCN(c3ccccc3)CC2)cc1` [Compound 35, 4-[[(2-chlorophenyl)imino](4-phenyl-1-piperazinyl)methyl]-benzoic acid methyl ester], the Ki is 7640 nM on δ-opioid receptor (setting [1]) and > 10000 nM at μ-opioid receptor (setting [2]). As to `CCN(CC)C(=O)c1ccc(C(=Nc2ccccc2C(F)(F)F)N2CCN(CCc3ccccc3)CC2)cc1` [Compound 24, N,N-diethyl-4-[[4-(2-phenylethyl)-1-piperazinyl][[2-(trifluoromethyl)phenyl]imino]methyl]-benzamide], the Ki at δ-opioid receptor stood at 545 nM; at μ-opioid receptor, 1000 nM. On δ-opioid receptor, `CCN(CC)C(=O)c1ccc(C(=Nc2ccccc2)N2CCCN(CCc3ccccc3)CC2)cc1` [Compound 56, N,N-diethyl-4-[[hexahydro-4-(2-phenylethyl)-1H-1,4-diazepin-1-yl](phenylimino)methyl]-benzamide] yielded a Ki of 396 nM. In the case of `COC(=O)c1ccc(C(=Nc2ccccc2Cl)N2CCN(Cc3ccccc3)CC2)cc1` [Compound 39, 4-[[(2-chlorophenyl)imino][4-(phenylmethyl)-1-piperazinyl]methyl]-benzoic acid methyl ester], the results for the Ki at δ-opioid receptor (setting [1]) and on μ-opioid receptor (setting [2]) were 2010 nM and > 10000 nM, respectively.

For `C=CCN1C[C@H](C)N(/C(=N/c2ccccc2)c2ccc(C(=O)OC)cc2)C[C@H]1C` [Compound 51, 4-[(E)-[(2S,5R)-2,5-dimethyl-4-(2-propenyl)piperazinyl](phenylimino)methyl]-benzoic acid methyl ester], the results for the Ki at δ-opioid receptor (setting [1]) and on μ-opioid receptor (setting [2]) were 405 nM and > 10000 nM, respectively. In the case of `COCCN1CCN(C(=Nc2ccccc2Cl)c2ccc(C(=O)OC)cc2)CC1` [Compound 45, 4-[[(2-chlorophenyl)imino][4-(2-methoxyethyl)-1-piperazinyl]methyl]-benzoic acid methyl ester], the inhibition constant (Ki) at δ-opioid receptor (setting [1]) is 299 nM; on μ-opioid receptor (setting [2]) it was > 10000 nM.

As to `CCN1CCN(C(=Nc2ccccc2F)c2ccc(C(=O)OC)cc2)CC1` [Compound 33, 4-[(4-ethyl-1-piperazinyl)[(3-fluorophenyl)imino]methyl]-benzoic acid methyl ester], the inhibition constant (Ki) at δ-opioid receptor (setting [1]) was 230 nM; at μ-opioid receptor (setting [2]) it was > 10000 nM. The matching figures for `COC(=O)c1ccc(C(=Nc2ccccc2Cl)N2CCN(CCc3ccccc3)CC2)cc1` [Compound 40, 4-[[(2-chlorophenyl)imino][4-(2-phenylethyl)-1-piperazinyl]methyl]-benzoic acid methyl ester]: > 10000 nM and > 10000 nM. On to `COC(=O)c1ccc(C(=Nc2ccccc2)N2CCN(Cc3ccccc3)CC2)cc1` [Compound 37, 4-[(phenylimino)[4-(phenylmethyl)-1-piperazinyl]methyl]-benzoic acid methyl ester], for which the Ki was 1690 nM on δ-opioid receptor (setting [1]) and > 10000 nM on μ-opioid receptor (setting [2]). Regarding `CCN(CC)C(=O)c1ccc(C(=Nc2ccccc2)N2CCN(CCc3cccs3)CC2)cc1` [Compound 22, N,N-diethyl-4-[(phenylimino)[4-[2-(2-thienyl)ethyl]-1-piperazinyl]methyl]-benzamide], the Ki is 764 nM at δ-opioid receptor and > 10000 nM on μ-opioid receptor. For `COC(=O)c1ccc(C(=Nc2ccccc2)N2CCCN(CCc3ccccc3)CC2)cc1` [Compound 58, 4-[[hexahydro-4-(2-phenylethyl)-1H-1,4-diazepin-1-yl](phenylimino)methyl]-benzoic acid methyl ester], the inhibition constant Ki on δ-opioid receptor (setting [1]) amounted to 820 nM; on μ-opioid receptor (setting [2]) it was 232 nM. As to `CCN(CC)C(=O)c1ccc(C(=Nc2ccccc2Cl)N2CCN(CCOC)CC2)cc1` [Compound 27, 4-[[(2-chlorophenyl)imino][4-(2-methoxyethyl)-1-piperazinyl]methyl]-N,N-diethyl-benzamide], the Ki at δ-opioid receptor was 53.5 nM; on μ-opioid receptor, > 10000 nM. On to `COC(=O)c1ccc(C(=Nc2ccccc2C(F)(F)F)N2CCN(CCc3ccccc3)CC2)cc1` [Compound 41, 4-[[4-(2-phenylethyl)-1-piperazinyl][[2-(trifluoromethyl)phenyl]imino]methyl]-benzoic acid methyl ester], for which the inhibition constant (Ki) at δ-opioid receptor (setting [1]) and at μ-opioid receptor (setting [2]) was > 10000 nM in each case. Consider `C=CCN1CCN(C(=Nc2ccccc2)c2cccc(C(=O)N(CC)CC)c2)CC1` [Compound 53, N,N-diethyl-3-[(phenylimino)[4-(2-propenyl)-1-piperazinyl]methyl]-benzamide], for which the figures for the Ki at δ-opioid receptor (setting [1]) and at μ-opioid receptor (setting [2]) were 7030 nM and > 10000 nM, respectively.

For `CCN(CC)C(=O)c1ccc(C(=Nc2ccc(Cl)cc2)N2CCN(Cc3ccccc3)CC2)cc1` [Compound 28, 4-[[(4-chlorophenyl)imino][4-(phenylmethyl)-1-piperazinyl]methyl]-N,N-diethyl-benzamide], the inhibition constant Ki at δ-opioid receptor was 142 nM; on μ-opioid receptor, > 10000 nM. Consider `COCCN1CCN(C(=Nc2ccccc2C(F)(F)F)c2ccc(C(=O)OC)cc2)CC1` [Compound 44, 4-[[4-(2-methoxyethyl)-1-piperazinyl][[2-(trifluoromethyl)phenyl]imino]methyl]-benzoic acid methyl ester], for which the Ki was determined as 82.6 nM at δ-opioid receptor (setting [1]) and 9150 nM at μ-opioid receptor (setting [2]). As to `C=CCN1CCN(C(=Nc2ccccc2)c2ccc(C(=O)N(CC)CC)cc2)CC1` [Compound 15, N,N-diethyl-4-[(phenylimino)[4-(2-propenyl)-1-piperazinyl]methyl]-benzamide], the inhibition constant Ki is 859 nM at δ-opioid receptor and > 10000 nM on μ-opioid receptor.
